US20020007663A1, “Method of introducing an in situant into a vapor compression system, especially useful for leak detection, as well as an apparatus for leak detection and a composition useful for leak detection” (Mainstream Engineering Corporation, priority 1997, published 2002)
Where two headings read alike, the source gives them in different places.

Experiment: solubility of fluorescent in situants in POE oils, alcohols, AB oil and mineral oil
Conditions: for solubility in POE oil: two different POE oils
Method: We have measured the solubility of several fluorescent and daylight-visible in situants in various POE oils and prepared solutions comprised solely of the POE carrier fluid (i.e., no alcohol in the carrier fluid) and these in situants. An example composition is 30 wt. % N-phenyl-1-naphthylamine and 70 wt. % POE oil. […] For example, a composition was prepared with 30 wt. % N-phenyl-1-naphthylamine, 1 wt. % 7-diethylamino-4-methylcoumarin (coumarin 1) and 69 wt. % POE oil. […] The preferred final composition of the fluorescing or daylight visible in situant in the system oil will be below the solubility limits.

[1] = POE oil or alcohols, qualitative

Molecule	soluble in POE oil or alcohols	also measured
NC(=O)c1nc2ccc(O)cc2s1 [2-carbamoyl-6-hydroxybenzothiazole]	soluble	
c1ccc(N=Nc2ccc(Nc3ccccc3)cc2)cc1 [4-(phenylazo)-diphenylamine]	soluble	
primuline	soluble	
Oc1ccc2nc(-c3nc4ccccc4s3)sc2c1 [2′-(2-benzothiazolyl)-6′-hydroxybenzothiazole]	soluble	
c1ccc2c(c1)Nc1ccccc1S2 [phenothiazine]		soluble in POE oil or alcohols [1]: soluble
c1ccc(Nc2ccc3ccccc3c2)cc1 [N-phenyl-2-naphthylamine]		soluble in POE oil or alcohols [1]: soluble; solubility in alcohols: 1-6%; solubility in POE oil: about 5 % by wt.
c1ccc(Nc2cccc3ccccc23)cc1 [N-phenyl-1-naphthylamine]		solubility in AB oil (AB oil): about 10 weight percent; solubility in alcohols: 20-30%; solubility in mineral oil (mineral oil): ~3 weight percent; solubility in POE oil: 20-30 % by wt.
Cc1ccc2nc(-c3ccc(N=NNc4ccc(-c5nc6ccc(C)c(S(=O)(=O)[O-])c6s5)cc4)cc3)sc2c1S(=O)(=O)[O-].[Na+].[Na+] [thiazole yellow G]	soluble	
O=C1c2cccc(O)c2C(=O)c2cccc(O)c21 [anthrarufin]	soluble	
O=C1c2ccc(O)c(O)c2C(=O)c2c(O)ccc(O)c21 [quinalizarin]	soluble	
O=C1c2ccccc2C(=O)c2c(O)c(O)cc(O)c21 [purpurin]	soluble	
c1ccc(Nc2ccccc2)cc1 [diphenylamine]	soluble	
